One experiment has as its system C fibers. In words: Threshold pulse duration for hot pain by 980 nm diode laser, stimulation of C fibers. As to conditions: healthy volunteer affected by topical capsaicin. In kind it is in vivo, human. The protocol: Subjects: A chronic pain patient with hypersensitivity and a healthy volunteer were tested. Both subjects gave informed consent and the experiments were approved by the local institutional review board. The hairy skin of left hand was used for both volunteers. In preparing the subjects testing, they were asked to respond orally immediately after they perceived any threshold sensation and/or to interrupt lasing pulse by pressing STOP button. They then described the level and type of evoked sensation, location of sensation, how long the sensation lasted, whether the sensation was single (monomodal) sensation or if there were more than one evoked sensations by a single stimulation. Afterwards, the threshold pulse was applied 3 times to different areas with interval of ˜3 min or after the previous sensation (pain) had disappeared. The appearance redness was an indication of skin irritation. Step 1: To test duration of pulse that evoked threshold warmth sensation only, the output power was set to 1.5 W, beam size adjusted to 5 mm. The pulse was applied to the skin. When the volunteer reported warmth (pain) sensation the lasing was stopped. […] The pulse duration for tolerance for hot pain was 2000 ms. […] When this button was pushed the command “stop lasing” was activated, duration of applied pulse was measured and it was indicated on the screen of PC connected to the device by RS232 interface. […]

The next experiment deals with T1, TRPV1 (Rattus norvegicus, UniProt O35433).
T1 construct: DRG cells TRPV1 positive cells (Type 2) and TRPV2 positive cells (Type 4) were irradiated; from tissue; host or cells: primary neurons dissociated from rat dorsal root ganglia (type 2 cells)
T1 sequence (O35433 whole entry): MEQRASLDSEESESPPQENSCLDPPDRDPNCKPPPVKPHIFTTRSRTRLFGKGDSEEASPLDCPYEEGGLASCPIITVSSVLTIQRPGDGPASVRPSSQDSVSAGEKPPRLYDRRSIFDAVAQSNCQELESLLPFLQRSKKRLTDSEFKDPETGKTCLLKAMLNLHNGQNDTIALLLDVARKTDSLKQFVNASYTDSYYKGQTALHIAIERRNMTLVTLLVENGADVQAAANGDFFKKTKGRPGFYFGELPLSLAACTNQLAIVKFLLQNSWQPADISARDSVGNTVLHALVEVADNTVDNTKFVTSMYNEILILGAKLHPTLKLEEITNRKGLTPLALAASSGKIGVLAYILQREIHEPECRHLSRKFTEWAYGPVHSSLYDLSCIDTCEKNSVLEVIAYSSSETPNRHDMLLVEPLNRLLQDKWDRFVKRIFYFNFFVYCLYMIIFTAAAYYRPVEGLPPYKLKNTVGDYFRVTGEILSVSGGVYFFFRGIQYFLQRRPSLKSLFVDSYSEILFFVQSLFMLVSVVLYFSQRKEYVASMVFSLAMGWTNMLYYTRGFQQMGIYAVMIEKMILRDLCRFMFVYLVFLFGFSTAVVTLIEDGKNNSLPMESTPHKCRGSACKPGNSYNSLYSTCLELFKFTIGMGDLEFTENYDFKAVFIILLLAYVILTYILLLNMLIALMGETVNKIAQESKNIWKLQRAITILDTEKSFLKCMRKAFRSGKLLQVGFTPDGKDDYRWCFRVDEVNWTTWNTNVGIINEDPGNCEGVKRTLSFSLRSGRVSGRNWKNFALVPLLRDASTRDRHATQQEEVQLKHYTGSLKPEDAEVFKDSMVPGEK
Kind of experiment: Whole cell patch recording of diode laser evoked inward currents in TRPV1 positive (type 2) DRG cells. Format: cell-based. The settings on record: capsazepine 10 uM, close superfusion, two minute application; laser pulses 20 ms and 2.41 W (1200 mA).

The next experiment relates to C fiber mediated pain. As to conditions: background statement; cited from earlier work.

“Also recorded” adds a separate entry of the source.

Method for TRPV1: Rats were anesthetized with halothane. Following decapitation, the spinal cord was rapidly removed, and the dorsal root ganglia were dissected free. Dissected ganglia were placed in a heated bath (35° C. for 70 min) containing dispase II and collagenase (2 mg/ml; Sigma type 1). Following wash and trituration, recovered cells were plated on 10 polylysine coated, 35 mm Petri dishes. Cells were bathed continuously in a rat Tyrode's solution containing (mM): 140 NaCl, 4 KCl, 2 MgCl2, 2 CaCl2, 10 glucose, and 10 HEPES, pH adjusted to 7.4 with NaOH. Only one cell was used from each dish. Bath temperature was maintained at 32° C. by a feedback-controlled bath heater (TCbip; Cell Microsystems).
Electrodes were prepared (2-4 MΩ) from glass pipettes using a Brown and Flaming type horizontal puller (Sutter model P87). Whole cell recordings were made with an Axopatch 200B (Axon Instruments). Stimuli were controlled and digital records captured with pClamp 8.2 software and Digidata 1322A A/D converter (Axon Instruments). Series resistance (Rs) was compensated 40-60% with Axopatch 200B compensation circuitry. Whole cell resistance and capacitance was determined by Clampex 8.2 software utility. A liquid junction potential of approximately 4 mV was not corrected.
Recordings were made from cells with diameters between 25 and 45 μm.
Lass 10 M investigational diode laser (Lasmed LLC) was used in all studies. […]

`COc1cc(CNC(=O)CCCC/C=C/C(C)C)ccc1O` [Capsaicin]: the “threshold pulse duration by reflex time monitored with infrared CCD camera” value in the experiment with C fibers (1.5 W, 5 mm, without delay of individual reaction (1270 ms without capsaicin)) came out at 650 ms. Moreover, in the experiment with C fibers (output power 1.5 W, beam size 5 mm, hairy skin of left hand, lasing stopped by volunteer (1300 ms without capsaicin)), the “threshold pulse duration for hot pain” value came to 800 ms.
`Oc1cc2c(cc1O)CN(C(=S)NCCc1ccc(Cl)cc1)CCC2` [capsazepine]: the “currents evoked by 980 nm stimuli” value on TRPV1 was “dramatically reduced; also recorded: reduced currents”.
Turning to `CN1CC[C@]23c4c5ccc(O)c4O[C@H]2[C@@H](O)C=C[C@H]3[C@H]1C5` [morphine], the “effectiveness in inhibiting C fiber mediated pain compared with A delta fiber mediated pain” value in the experiment with C fiber mediated pain is reported as “much more effective”.

The values are drawn from patent US8029553B2, “Portable laser and process for pain research” (priority 2004, dated 2011).
